Measured values taken from ChEMBL document CHEMBL3885881, “DrugMatrix”.

Species: Rattus norvegicus
Experiment: DrugMatrix - Regimen: Daily Repeat
Format: toxicity, organism-based, Sprague-Dawley
Design: regimen Daily Repeat, gender Male, age 6-8 weeks
Details: in vivo, po, 15 mg/kg, route oral GAVAGE, dose level High, […]; for NEUTROPHIL / PLATELET COUNT / ABSOLUTE BASOPHIL / ABSOLUTE EOSINOPHIL / ABSOLUTE LYMPHOCYTE / ABSOLUTE MONOCYTE / BASOPHIL / EOSINOPHIL / ERYTHROCYTE COUNT / HEMATOCRIT / HEMOGLOBIN / LEUKOCYTE COUNT / LYMPHOCYTE / MEAN CORPUSCULAR HEMOGLOBIN / MEAN CORPUSCULAR HEMOGLOBIN CONCENTRATION / MEAN CORPUSCULAR VOLUME / MONOCYTE: tissue Blood
[1] = 72 h, tissue Plasma, time 3 day
[2] = 120 h, tissue Plasma, time 5 day

**Q.** How did the NEUTROPHIL (72 h, time 3 day) turn out when `CC(CCc1ccc(O)cc1)NCCc1ccc(O)c(O)c1` (stereo unspecified) [DOBUTAMINE] was run?
**A.** Its NEUTROPHIL is 23.9%.

**Q.** What about the “PLATELET COUNT” value (72 h, time 3 day) of the same compound?
**A.** Its value is 1110.33 x10E3/uL.

**Q.** And the “ALANINE AMINOTRANSFERASE” value [1]?
**A.** Its value is 48.33 u/L.

**Q.** What about the ALBUMIN [1] of the same compound?
**A.** The ALBUMIN was 4.07 G/DL.

**Q.** And the “ALKALINE PHOSPHATASE” value [1]?
**A.** Its value is 498.67 u/L.

**Q.** What about the “ASPARTATE AMINOTRANSFERASE” value [1] of the same compound?
**A.** The value was 85.67 u/L.

**Q.** What about the “BLOOD UREA NITROGEN” value [1] of the same compound?
**A.** Its value is 18.67 mg/dL.

**Q.** And the “CARBON DIOXIDE” value [1]?
**A.** The value was 41.67 mmol/L.

**Q.** And the CHLORIDE [1]?
**A.** The CHLORIDE was 105 MEQ/L.

**Q.** What about the CHOLESTEROL [1] of the same compound?
**A.** Its CHOLESTEROL is 71.67 mg/dL.

**Q.** And the “CREATINE PHOSPHOKINASE” value [1]?
**A.** The value was 568.67 u/L.

**Q.** And the CREATININE [1]?
**A.** The CREATININE was 0.6 mg/dL.

**Q.** What about the GLUCOSE [1] of the same compound?
**A.** The GLUCOSE was 196 mg/dL.

**Q.** And the LIPASE [1]?
**A.** The LIPASE was 199.67 u/L.

**Q.** What about the PHOSPHORUS [1] of the same compound?
**A.** The PHOSPHORUS was 9.2 mg/dL.

**Q.** And the POTASSIUM [1]?
**A.** Its POTASSIUM is 5.77 MEQ/L.

**Q.** And the SODIUM [1]?
**A.** The SODIUM was 147.67 MEQ/L.

**Q.** And the “TOTAL BILIRUBIN” value [1]?
**A.** Its value is 0.43 mg/dL.

**Q.** And the “TOTAL PROTEIN” value [1]?
**A.** The value was 6.67 G/DL.

**Q.** What about the “URIC ACID” value [1] of the same compound?
**A.** Its value is 0.6 mg/dL.

**Q.** What about the ABSOLUTE BASOPHIL (120 h, time 5 day) of the same compound?
**A.** The ABSOLUTE BASOPHIL was 26.7 cells/µL.

**Q.** What about the ABSOLUTE EOSINOPHIL (120 h, time 5 day) of the same compound?
**A.** Its ABSOLUTE EOSINOPHIL is 26.7 cells/µL.

**Q.** And the ABSOLUTE LYMPHOCYTE (120 h, time 5 day)?
**A.** The ABSOLUTE LYMPHOCYTE was 7530 cells/µL.

**Q.** What about the ABSOLUTE MONOCYTE (120 h, time 5 day) of the same compound?
**A.** The ABSOLUTE MONOCYTE was 170 cells/µL.

**Q.** What about the BASOPHIL (120 h, time 5 day) of the same compound?
**A.** Its BASOPHIL is 0.27%.

**Q.** And the EOSINOPHIL (120 h, time 5 day)?
**A.** The EOSINOPHIL was 0.33%.

**Q.** What about the “ERYTHROCYTE COUNT” value (120 h, time 5 day) of the same compound?
**A.** The value was 6.8 x10E6/uL.

**Q.** What about the HEMATOCRIT (120 h, time 5 day) of the same compound?
**A.** Its HEMATOCRIT is 46.17%.

**Q.** What about the HEMOGLOBIN (120 h, time 5 day) of the same compound?
**A.** Its HEMOGLOBIN is 14.17 G/DL.

**Q.** And the “LEUKOCYTE COUNT” value (120 h, time 5 day)?
**A.** The value was 9.18 x10E3/uL.

**Q.** And the LYMPHOCYTE (120 h, time 5 day)?
**A.** Its LYMPHOCYTE is 82.07%.

**Q.** And the “MEAN CORPUSCULAR HEMOGLOBIN” value (120 h, time 5 day)?
**A.** The value was 20.87 pg.

**Q.** And the “MEAN CORPUSCULAR HEMOGLOBIN CONCENTRATION” value (120 h, time 5 day)?
**A.** The value was 30.73 G/DL.

**Q.** What about the “MEAN CORPUSCULAR VOLUME” value (120 h, time 5 day) of the same compound?
**A.** The value was 67.93 fL.

**Q.** What about the MONOCYTE (120 h, time 5 day) of the same compound?
**A.** Its MONOCYTE is 1.87%.

**Q.** And the NEUTROPHIL (120 h, time 5 day)?
**A.** Its NEUTROPHIL is 15%.

**Q.** What about the “PLATELET COUNT” value (120 h, time 5 day) of the same compound?
**A.** Its value is 1523.67 x10E3/uL.

**Q.** What about the “ALANINE AMINOTRANSFERASE” value [2] of the same compound?
**A.** The value was 40.67 u/L.

**Q.** And the ALBUMIN [2]?
**A.** The ALBUMIN was 4.2 G/DL.

**Q.** What about the “ALKALINE PHOSPHATASE” value [2] of the same compound?
**A.** Its value is 613.33 u/L.

**Q.** What about the “ASPARTATE AMINOTRANSFERASE” value [2] of the same compound?
**A.** Its value is 74.67 u/L.

**Q.** And the “BLOOD UREA NITROGEN” value [2]?
**A.** Its value is 17 mg/dL.

**Q.** What about the “CARBON DIOXIDE” value [2] of the same compound?
**A.** Its value is 40.67 mmol/L.

**Q.** And the CHLORIDE [2]?
**A.** The CHLORIDE was 107.33 MEQ/L.

**Q.** What about the CHOLESTEROL [2] of the same compound?
**A.** The CHOLESTEROL was 84.33 mg/dL.

**Q.** What about the “CREATINE PHOSPHOKINASE” value [2] of the same compound?
**A.** The value was 393 u/L.

**Q.** And the CREATININE [2]?
**A.** The CREATININE was 0.53 mg/dL.

**Q.** And the GLUCOSE [2]?
**A.** Its GLUCOSE is 174.33 mg/dL.

**Q.** And the LIPASE [2]?
**A.** The LIPASE was 199.33 u/L.

**Q.** And the PHOSPHORUS [2]?
**A.** Its PHOSPHORUS is 10.1 mg/dL.

**Q.** What about the POTASSIUM [2] of the same compound?
**A.** The POTASSIUM was 6.07 MEQ/L.

**Q.** What about the SODIUM [2] of the same compound?
**A.** The SODIUM was 149.33 MEQ/L.

**Q.** And the “TOTAL BILIRUBIN” value [2]?
**A.** Its value is 0.4 mg/dL.

**Q.** And the “TOTAL PROTEIN” value [2]?
**A.** Its value is 6.73 G/DL.

**Q.** And the “URIC ACID” value [2]?
**A.** Its value is 0.87 mg/dL.

**Q.** And the ABSOLUTE BASOPHIL (time 14 day)?
**A.** Its ABSOLUTE BASOPHIL is 52 cells/µL.

**Q.** And the ABSOLUTE EOSINOPHIL (time 14 day)?
**A.** The ABSOLUTE EOSINOPHIL was 40 cells/µL.

**Q.** What about the ABSOLUTE LYMPHOCYTE (time 14 day) of the same compound?
**A.** Its ABSOLUTE LYMPHOCYTE is 9620 cells/µL.

**Q.** What about the ABSOLUTE MONOCYTE (time 14 day) of the same compound?
**A.** Its ABSOLUTE MONOCYTE is 200 cells/µL.

**Q.** And the BASOPHIL (time 14 day)?
**A.** Its BASOPHIL is 0.42%.

**Q.** What about the EOSINOPHIL (time 14 day) of the same compound?
**A.** Its EOSINOPHIL is 0.34%.

**Q.** And the “ERYTHROCYTE COUNT” value (time 14 day)?
**A.** The value was 7.05 x10E6/uL.

**Q.** And the HEMATOCRIT (time 14 day)?
**A.** Its HEMATOCRIT is 43.9%.

**Q.** And the HEMOGLOBIN (time 14 day)?
**A.** Its HEMOGLOBIN is 14.6 G/DL.

**Q.** What about the “LEUKOCYTE COUNT” value (time 14 day) of the same compound?
**A.** The value was 12.04 x10E3/uL.

**Q.** What about the LYMPHOCYTE (time 14 day) of the same compound?
**A.** The LYMPHOCYTE was 79.76%.

**Q.** And the “MEAN CORPUSCULAR HEMOGLOBIN” value (time 14 day)?
**A.** The value was 20.7 pg.

**Q.** What about the “MEAN CORPUSCULAR HEMOGLOBIN CONCENTRATION” value (time 14 day) of the same compound?
**A.** Its value is 33.26 G/DL.

**Q.** What about the “MEAN CORPUSCULAR VOLUME” value (time 14 day) of the same compound?
**A.** The value was 62.28 fL.

**Q.** And the MONOCYTE (time 14 day)?
**A.** The MONOCYTE was 1.68%.

**Q.** And the NEUTROPHIL (time 14 day)?
**A.** The NEUTROPHIL was 17.28%.

**Q.** And the “PLATELET COUNT” value (time 14 day)?
**A.** The value was 1124.2 x10E3/uL.

**Q.** And the “ALANINE AMINOTRANSFERASE” value (tissue Plasma, time 14 day)?
**A.** The value was 35 u/L.

**Q.** What about the ALBUMIN (tissue Plasma, time 14 day) of the same compound?
**A.** The ALBUMIN was 4.04 G/DL.

**Q.** And the “ALKALINE PHOSPHATASE” value (tissue Plasma, time 14 day)?
**A.** Its value is 405.4 u/L.

**Q.** What about the “ASPARTATE AMINOTRANSFERASE” value (tissue Plasma, time 14 day) of the same compound?
**A.** The value was 77.8 u/L.

**Q.** What about the “BLOOD UREA NITROGEN” value (tissue Plasma, time 14 day) of the same compound?
**A.** The value was 14 mg/dL.

**Q.** What about the “CARBON DIOXIDE” value (tissue Plasma, time 14 day) of the same compound?
**A.** Its value is 43.2 mmol/L.

**Q.** What about the CHLORIDE (tissue Plasma, time 14 day) of the same compound?
**A.** Its CHLORIDE is 103 MEQ/L.

**Q.** And the CHOLESTEROL (tissue Plasma, time 14 day)?
**A.** Its CHOLESTEROL is 69.8 mg/dL.

**Q.** And the “CREATINE PHOSPHOKINASE” value (tissue Plasma, time 14 day)?
**A.** Its value is 325.8 u/L.

**Q.** What about the CREATININE (tissue Plasma, time 14 day) of the same compound?
**A.** The CREATININE was 0.8 mg/dL.

**Q.** And the GLUCOSE (tissue Plasma, time 14 day)?
**A.** The GLUCOSE was 144.4 mg/dL.

**Q.** And the “LACTATE DEHYDROGENASE” value (tissue Plasma, time 14 day)?
**A.** Its value is 182.2 u/L.

**Q.** What about the LIPASE (tissue Plasma, time 14 day) of the same compound?
**A.** The LIPASE was 12.2 u/L.

**Q.** What about the PHOSPHORUS (tissue Plasma, time 14 day) of the same compound?
**A.** The PHOSPHORUS was 10.48 mg/dL.

**Q.** What about the POTASSIUM (tissue Plasma, time 14 day) of the same compound?
**A.** Its POTASSIUM is 6.04 MEQ/L.

**Q.** And the SODIUM (tissue Plasma, time 14 day)?
**A.** Its SODIUM is 147 MEQ/L.

**Q.** What about the “TOTAL BILIRUBIN” value (tissue Plasma, time 14 day) of the same compound?
**A.** Its value is 0.36 mg/dL.

**Q.** And the “TOTAL PROTEIN” value (tissue Plasma, time 14 day)?
**A.** The value was 6.56 G/DL.

**Q.** What about the “URIC ACID” value (tissue Plasma, time 14 day) of the same compound?
**A.** Its value is 0.66 mg/dL.
